The values below come from article PMC7179302, “Lead Optimization of Dehydroemetine for Repositioned Use in Malaria” (Antimicrobial Agents and Chemotherapy, 2020).

Structures are written as SMILES. Counter-ions that a name gives are not always drawn.

Common to all, as to format: cell-based
One series addresses T1, hERG potassium channel (Homo sapiens, UniProt Q12809).
T1 construct: host or cells: Chinese hamster ovary (CHO) cells
The series is described as follows: hERG channel inhibition assay (CHO cells, whole-cell voltage clamp, Cyprotex). Conditions: for selectivity ratio at 300 s / inhibition at 300 s, 0.016 µM / inhibition at 300 s, 0.08 µM / inhibition at 300 s, 0.4 µM / inhibition at 300 s, 2 µM / inhibition at 300 s, 10 µM / inhibition at 300 s, 50 µM: human; for selectivity ratio at 300 s: CHO cells expressing the hERG potassium channel, read-out: Selectivity index, IC50 hERG/IC50 parasites. The protocol:
For each replicate, the hERG response was calculated using the following equation: % hERG response = post-compound-application current (nA)/pre-compound-application current (nA) × 100.
The experiment to test the potential of emetine, (−)-R,S-dehydroemetine, and (−)-S,S-dehydroisoemetine to inhibit the hERG channel was outsourced to Cyprotex, UK. One-hundred-microliter amounts of a 20 mM concentration of each of the three compounds in DMSO was provided to Cyprotex. […] Chinese Hamster ovary cells expressing the hERG potassium channel were dispensed into 384-well planar arrays, and hERG tail currents were measured by whole-cell voltage clamping. Amphotericin B was used as a perforating agent that was circulated underneath the PatchPlate to gain electrical access to the cell. The pre-compound-application hERG current was measured. Emetine, (−)-R,S-dehydroemetine, and (−)-S,S-dehydroisoemetine in ranges of concentrations were then added to the cells, and a second recording of the hERG current was made. The test compound was left in contact with the cells for 300 s before currents were recorded. […] All buffers, cell suspensions, and drug compound solutions were at room temperature. The percentage of change in hERG current was measured and used to calculate an IC50 value.
Each concentration was tested in 4 replicate wells on the PatchPlate (maximum of 24 data points). Filters were applied to ensure that only acceptable cells were used to assess hERG inhibition.

The test system of series [1] is Plasmodium falciparum rings and trophozoites/schizonts. The series is described as follows: Stage-specific profiling using synchronized cultures. Conditions: highest concentration tested, 24 h exposure, read 24 h after postexposure wash. The procedure: Parasite cultures with ≥80% trophozoites and ≥80% rings were obtained by synchronization with 5% sorbitol ([42]). The cultures were synchronized twice, at 0 h and 31 h, to obtain young rings which were up to 3 h old. To obtain early schizont stages, the cultures were synchronized twice, with the second synchronization being 6 to 8 h after the first. […] The plates were washed 4 times after the incubation in order to dilute the drug concentration by >1,000-fold. The plates were incubated for another 24 h at 37°C, following which SYBR green staining was used to read the plates as described above.

The test system of series [2] is female gametocytes in P. falciparum strain NF54. As to the kind of experiment: Dual gamete formation assay, female gametocytes (Pfs25 expression). Conditions: Plasmodium falciparum, 48 h incubation. The procedure:
(§1) A bioassay was performed to assess the malaria transmission-blocking potential of compounds on P. falciparum strain NF54 by estimating their ability to prevent male mature gametocytes from progressing to male microgametes or/and to inhibit female gamete activation, as indicators of gametocyte functionality. The NF54 strain was selected for its increased ability to produce gametocytes under in vitro conditions ([45]). The activation of male gametocytes into mature microgametes is evaluated by the process of exflagellation (extrusion of rapidly waving flagellum-like microgametes from the infected erythrocyte). The activation of female gametocytes is evaluated based on the specific expression of the P. falciparum s25 (Pfs25) protein at the surface of the female activated gametes ([46]). […]
(§2) Asexual cultures of P. falciparum strain NF54 parasites were used to seed gametocyte cultures at 0.5% parasitemia, 4% hematocrit in a 50-ml total volume under 3% O2, 5% CO2, 92% N2 gas. […] Plates were analyzed to detect exflagellation centers. […] Then, plates were analyzed to detect female activated gametes. Activation of male gametes was detected based on light changes provoked by flagellar movements that caused movement of surrounding cells. A 10-frame video was taken and then analyzed to determine these changes in cell position based on changes in pixels. […]

Series [3] deals with male gametocytes in P. falciparum strain NF54. The series is described as follows: Dual gamete formation assay, male gametocytes (exflagellation). Conditions: Plasmodium falciparum, 48 h incubation. The protocol: as §1, §2
A further series relates to HepG2 cells. As to the kind of experiment: MTT assay for cell cytotoxicity against HepG2 cells. Conditions: for LD50 (50% lethal dose), MTT assay: HepG2 cells, 48 h, ± SD. The procedure: HepG2 cells (University of Salford stocks, purchased from American Type Culture Collection [ATCC], USA), were grown in medium consisting of RPMI 1640, 2 mM L-glutamine, HEPES, 10% fetal bovine serum, 1% nonessential amino acids, and 1% penicillin-streptomycin. Cells were calculated on a hemocytometer to make a new cell-medium solution to a concentration of 5,000 cells/100 μl, and 100 μl of this new cell solution was added into each well of the 96-well plate. After 24 h of incubation, 100-μl amounts of the drug prepared in the medium were added to the wells. This was repeated in triplicate, and the plate was incubated for a further 48 h ([56]). After the incubation period, 50 μl of MTT solution was added to each well and incubated for 3 h. The liquid in each well was aspirated carefully, 200 μl of DMSO was added to each well, and the results were read on the Ascent plate reader.

T1 sequence (Q12809 whole entry): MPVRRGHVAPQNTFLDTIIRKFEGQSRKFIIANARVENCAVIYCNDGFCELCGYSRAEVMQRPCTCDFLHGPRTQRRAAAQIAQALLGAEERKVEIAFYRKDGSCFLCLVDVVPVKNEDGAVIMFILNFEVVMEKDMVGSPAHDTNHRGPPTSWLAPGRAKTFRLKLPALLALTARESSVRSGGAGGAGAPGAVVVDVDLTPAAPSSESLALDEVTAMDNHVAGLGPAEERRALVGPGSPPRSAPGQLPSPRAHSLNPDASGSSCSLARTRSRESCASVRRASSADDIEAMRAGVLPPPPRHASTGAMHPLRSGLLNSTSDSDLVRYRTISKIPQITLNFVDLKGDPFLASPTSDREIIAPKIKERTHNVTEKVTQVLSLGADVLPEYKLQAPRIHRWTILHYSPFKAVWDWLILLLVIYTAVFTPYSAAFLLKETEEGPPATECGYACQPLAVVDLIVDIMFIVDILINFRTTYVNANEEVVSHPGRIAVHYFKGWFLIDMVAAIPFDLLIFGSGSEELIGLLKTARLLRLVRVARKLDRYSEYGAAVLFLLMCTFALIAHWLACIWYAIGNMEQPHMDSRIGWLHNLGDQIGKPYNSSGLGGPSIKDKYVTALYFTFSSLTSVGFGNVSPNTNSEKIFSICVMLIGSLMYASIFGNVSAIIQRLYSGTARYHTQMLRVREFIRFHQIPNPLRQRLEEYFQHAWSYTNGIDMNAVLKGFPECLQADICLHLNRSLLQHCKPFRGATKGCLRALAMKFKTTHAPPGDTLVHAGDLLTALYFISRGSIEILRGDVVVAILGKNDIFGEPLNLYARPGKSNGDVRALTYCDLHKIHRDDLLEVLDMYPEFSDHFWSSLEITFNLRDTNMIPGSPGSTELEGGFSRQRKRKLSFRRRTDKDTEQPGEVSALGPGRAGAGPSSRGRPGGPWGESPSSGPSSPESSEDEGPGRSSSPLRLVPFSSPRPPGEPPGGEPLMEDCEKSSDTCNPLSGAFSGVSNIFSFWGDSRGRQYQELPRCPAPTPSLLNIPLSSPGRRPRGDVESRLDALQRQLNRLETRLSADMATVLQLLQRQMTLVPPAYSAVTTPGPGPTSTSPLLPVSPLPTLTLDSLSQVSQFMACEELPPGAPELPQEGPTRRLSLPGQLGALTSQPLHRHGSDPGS

With `CCC1=C(C[C@H]2NCCc3cc(OC)c(OC)cc32)C[C@H]2c3cc(OC)c(OC)cc3CCN2C1` [(−)-R,S-dehydroemetine, (S)-2-((R)-6,7-dimethoxy-1,2,3,4-tetrahydro-isoquinolin-1-ylmethyl)-3-ethyl-9,10-dimethoxy-1,6,7,11b-tetrahydro-4H-pyrido[2,1-a]isoquinoline * dihydrobromide], at hERG potassium channel, the 50% inhibitory concentration (IC50) turned out to be 19300 nM; the “hERG channel inhibition (in words)” value is recorded as “not an hERG channel inhibitor”; the selectivity ratio at 300 s was above 271; the inhibition at 300 s, 0.016 µM was found to be 7.79%. Moreover, at hERG potassium channel, the inhibition at 300 s, 0.08 µM is 6.34%; the inhibition at 300 s, 0.4 µM amounted to 12.7%; the inhibition at 300 s, 2 µM is 7.21%; the inhibition at 300 s, 10 µM was 39.4%. For the same compound, on hERG potassium channel, the inhibition at 300 s, 50 µM turned out to be 61.4%. Further, in series [1] (8500 (nM per legend)), the “Parasitaemia (percentage) Rings” value was 50.21% and the “Parasitaemia (percentage) Trophozoites” value is 19.75%. In addition, the IC50 in series [2] was found to be 1.04 µM. For the same compound, the IC50 in series [3] came to 0.43 µM. In the series on HepG2 cells, the “Selectivity index, LD50 HepG2 cells/IC50 parasites” value stood at 2.37 and the “LD50 (50% lethal dose), MTT assay” value was found to be 168.07 ± 8.65 nM.
Turning to `CCC1=C(C[C@@H]2NCCc3cc(OC)c(OC)cc32)C[C@H]2c3cc(OC)c(OC)cc3CCN2C1` [(−)-S,S-dehydroisoemetine, (S)-2-((S)-6,7-dimethoxy-1,2,3,4-tetrahydro-isoquinolin-1-ylmethyl)-3-ethyl-9,10-dimethoxy-1,6,7,11b-tetrahydro-4H-pyrido[2,1-a]isoquinoline * dihydrobromide], on hERG potassium channel, the 50% inhibitory concentration (IC50) came to 2990 nM; the “hERG channel inhibition (in words)” value was “potent inhibitor”; the selectivity ratio at 300 s was found to be 1.48; the inhibition at 300 s, 0.016 µM stood at 8.13%. On hERG potassium channel, this compound showed an inhibition at 300 s, 0.08 µM of 4.61%; an inhibition at 300 s, 0.4 µM of 9.33%; an inhibition at 300 s, 2 µM of 36%; an inhibition at 300 s, 10 µM of 70.7%. Moreover, at hERG potassium channel, the inhibition at 300 s, 50 µM was determined as 96.9%. Besides, in series [1] (200 (μM per legend)), the “Parasitaemia (percentage) Rings” value was found to be 70.98% and the “Parasitaemia (percentage) Trophozoites” value was determined as 24.67%. The compound further returned a 50% inhibitory concentration (IC50) in series [2] above 10 µM. For the same compound, the IC50 in series [3] was above 10 µM. Also, in the series with HepG2 cells, the “Selectivity index, LD50 HepG2 cells/IC50 parasites” value was 0.69 and the “LD50 (50% lethal dose), MTT assay” value is 1429 ± 180 nM.

One may read the IC50 as the midpoint of a concentration-inhibition curve. Low readings indicate greater potency, high ones weaker potency. One may read the inhibition as the drop in the measured response relative to a control, in per cent. Low values mean a response near the control, high ones a response far below the control.
